Measurements as given in paper PMC5766630, “Non-estrogenic Xanthohumol Derivatives Mitigate Insulin Resistance and Cognitive Impairment in High-Fat Diet-induced Obese Mice” (Scientific Reports, 2018).

Experiments:
[1] = biological target: T1, full-length purified human estrogen receptor ERα (Homo sapiens, UniProt P03372); assay: ERα competitive radiometric binding assay; conditions: for RBA ERα (relative binding affinity): RBA = IC50[estradiol]/IC50[compound] × 100, estradiol = 100, 2 nM [3H]-estradiol tracer, 18–24 h at 0 °C
T1 construct: full-length purified human estrogen receptors ERα and ERβ
T1 sequence (P03372 1-595): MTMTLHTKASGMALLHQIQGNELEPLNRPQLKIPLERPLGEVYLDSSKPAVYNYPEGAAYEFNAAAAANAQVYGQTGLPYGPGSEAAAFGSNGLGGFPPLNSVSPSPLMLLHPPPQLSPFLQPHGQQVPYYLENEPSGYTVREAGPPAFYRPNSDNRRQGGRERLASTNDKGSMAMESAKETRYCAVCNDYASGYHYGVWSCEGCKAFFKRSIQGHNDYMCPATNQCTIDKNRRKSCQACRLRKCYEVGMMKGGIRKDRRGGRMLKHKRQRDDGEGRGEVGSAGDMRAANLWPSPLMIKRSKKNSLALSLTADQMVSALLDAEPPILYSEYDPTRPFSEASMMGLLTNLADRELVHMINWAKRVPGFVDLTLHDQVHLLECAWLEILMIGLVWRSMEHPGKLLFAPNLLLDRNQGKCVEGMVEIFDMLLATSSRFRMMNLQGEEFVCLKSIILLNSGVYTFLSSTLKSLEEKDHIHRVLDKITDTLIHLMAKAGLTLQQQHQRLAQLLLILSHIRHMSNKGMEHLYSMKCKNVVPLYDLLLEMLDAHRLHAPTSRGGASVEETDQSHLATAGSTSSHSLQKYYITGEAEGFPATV
Procedure: The receptors and ligands were incubated for 18–24 h at 0 °C and then the receptor–ligand complexes separated using hydroxyapatite (BioRad, Hercules, CA, USA).

[2] = biological target: T2, full-length purified human estrogen receptor ERβ (Homo sapiens, UniProt Q92731); assay: ERβ competitive radiometric binding assay; conditions: for RBA ERβ (relative binding affinity): RBA = IC50[estradiol]/IC50[compound] × 100, estradiol = 100, 2 nM [3H]-estradiol tracer, 18–24 h at 0 °C
T2 construct: full-length purified human estrogen receptors ERα and ERβ
Procedure: . The receptors and ligands were incubated for 18–24 h at 0 °C and then the receptor–ligand complexes separated using hydroxyapatite (BioRad, Hercules, CA, USA). […]

MCF-7 cells = assay: MCF-7 cell proliferation, sulforhodamine B (SRB) assay; assay type: cell-based, human; conditions: 0.001–1 µM, 48 h exposure, vs vehicle control
Procedure: The SRB assay has been used to study the effects of phytochemicals such as XN, DXN and 8-PN on cell proliferation of various cancer cell lines, including MCF-7 cells[91],[92]. SRB is a dye that binds to cellular proteins of adherent cells and the absorbance readings are a measure of the number of viable cells (cell mass) attached to the culture plate after incubation with the test compounds (samples) in comparison with vehicle control cells. The cell mass is then extrapolated as a measurement of cell viability and cell proliferation. Increased proliferation of MCF-7 cells is one of the measures of estrogenicity of phytochemicals. MCF-7 cells were plated at 10,000 cells/well in 96-well plates in DMEM medium containing 10% charcoal-stripped FBS and antibiotics. […] After incubation with the test compounds for 48 h, the cell culture medium was removed from each well of the 96-well plate and the cells were fixed for 1 h with 10% trichloroacetic acid. The cells on the plate were washed five with distilled water, air-dried, and then stained with SRB dye (0.4% w/v in 1% acetic acid). Excess dye was removed by washing the plate five times with 1% acetic acid. The plates were air-dried and the adsorbed dye was solubilized in 10 mM Tris buffer for 5 min on a shaker before reading the optical density (OD) at 565 nm. The percentage cell viability/proliferation was calculated as follows: (ODSample−ODZeroblank)/(ODControl−ODZeroblank)×100. Mean values and the coefficient of variation (CV) from six replicate wells were calculated and a one-way ANOVA was used to compare statistical differences between treated and control cells, with p < 0.05 as the level of significance.

[3] = system: progesterone receptor (PGR) expression in MCF-7 cells; assay: Progesterone receptor (PGR) gene expression in MCF-7 cells, real-time PCR; assay type: cell-based, human; conditions: 20 h; estradiol 1 and 10 nM; 8-PN, XN, DXN, TXN 0.2, 1 and 5 μM; vs 0.1% ethanol
Procedure: MCF-7 cells (American Type Culture Collection, Manassas, VA, USA) were cultured in DMEM (Corning Life Sciences, Tewksbury, MA, USA) supplemented with 10% fetal bovine serum (Corning Life Sciences) and 100 μg/ml penicillin/streptomycin (Invitrogen, Carlsbad, CA, USA). For estrogen-free experiments, cells were seeded in phenol-free DMEM (Gibco/Life Technologies, Grand Island, NY, USA) plus 10% charcoal-dextran-treated FBS (Corning Life Sciences) at 5 × 10^5 cells/well of a 6-well plate. […] Total RNA was isolated using TRIzol (Invitrogen) and converted into cDNA using iScript (Bio-Rad, Hercules, CA, USA). Real-time PCR was performed in triplicate on a CFX-96 (Bio-Rad) using primer-probe assays (IDT Technologies, Coralville, IA, USA) and SsoAdvanced Universal Probes Supermix (Bio-Rad) to quantify progesterone receptor (PGR) and GAPDH levels. The ratio of PGR to GAPDH was calculated as 2^−ΔCt PGR/2^−ΔCt GAPDH. Data were analyzed using a one-way ANOVA (p < 0.05 was considered statistically significant) and a post-hoc Tukey’s multiple comparison test. Induction of the progesterone receptor in MCF-7 cells is one of the indices of estrogenicity of flavonoids such as 8-PN[94].

C2C12 cells = assay: Seahorse OCR and ECAR measurements (mitochondrial uncoupling); assay type: cell-based, mouse; conditions: oligomycin 1 μM, C2C12 cells
Procedure: OCR and ECAR measurements were performed with a Seahorse XF 24 Analyzer (Agilent Technologies, Inc., Santa Clara, CA, USA). C2C12 cells were plated in culture medium at a density of 40,000 cells per well in a 24-well plate. The cells were then allowed to adhere for 24 h (37 °C, 5% CO2). Prior to the assay, the cells were washed with freshly prepared running medium consisting of Seahorse XF Assay medium (Agilent Technologies, Inc., Santa Clara, CA, USA), 10 mM glucose and 1 mM sodium pyruvate. The pH of the medium was adjusted to 7.4 with 1 M NaOH. The cells were then equilibrated for one hour at 37 °C without CO2. […] To overcome this problem, the test compounds were first dissolved in ethanol and the resulting solution was diluted 100-fold in treatment medium (9 parts XF media and 1 part 10% FBS media) which was added directly to cells. The treatment medium contained 1% FBS and after a further 10-fold dilution into the media in wells, only 0.1% FBS was present during OCR and ECAR measurements. The final concentrations in the wells were: 1 μM for oligomycin, and 5 μM for XN, DXN or TXN. The concentration of oligomycin and the cell density used were selected based on preliminary experiments. Ethanol was added to the control wells not to exceed a final concentration of 0.1% (vehicle control). OCR and ECAR were measured at 9-min intervals.
Seahorse data: to show a consistent baseline, OCR values (in pmol/min/mg protein) and ECAR values (in mpH/min/mg protein) for each value were divided, prior to statistical analysis, by the average of the four pre oligomycin treatment values (0, 8, 17, and 25 min) for the corresponding well and are shown as % pre oligomycin values. To account for repeated measures within wells over time, we utilized a repeated-measures-in-time design using ANOVA procedures in PROC MIXED (SAS). Fixed effects in the model were treatment (control, 5 μM XN, 5 μM DXN, and 5 μM TXN for the compound study), time (0, 8, 17, 25, 34, 43, 52, 60, 69, 78, 86, and 95 min), and their interaction. The random effect was the experiment (5 experiments for the compound study). To account for repeated measures within wells over time, a first order homogeneous variance-covariance matrix [AR(1)] was fitted for each well. Using the ESTIMATE statement, a priori contrasts were constructed by comparing the changes in compound treated cells from the last two time points prior to compound treatment (average 52 and 60 min) to the changes in control cells during the same time-period. This was carried out for each compound and dosage for 69, 78, 86, and 95 min separately and for all four time points combined. Results are shown in the text and the graphs as least squares means and their corresponding SEM (standard error of mean). […]

[4] = parameters: method as in PMID 17517853, PMID 20154334; conditions: meta-analysis of 42 trials, p = 0.03; cited from earlier work

T2 sequence (Q92731 whole entry): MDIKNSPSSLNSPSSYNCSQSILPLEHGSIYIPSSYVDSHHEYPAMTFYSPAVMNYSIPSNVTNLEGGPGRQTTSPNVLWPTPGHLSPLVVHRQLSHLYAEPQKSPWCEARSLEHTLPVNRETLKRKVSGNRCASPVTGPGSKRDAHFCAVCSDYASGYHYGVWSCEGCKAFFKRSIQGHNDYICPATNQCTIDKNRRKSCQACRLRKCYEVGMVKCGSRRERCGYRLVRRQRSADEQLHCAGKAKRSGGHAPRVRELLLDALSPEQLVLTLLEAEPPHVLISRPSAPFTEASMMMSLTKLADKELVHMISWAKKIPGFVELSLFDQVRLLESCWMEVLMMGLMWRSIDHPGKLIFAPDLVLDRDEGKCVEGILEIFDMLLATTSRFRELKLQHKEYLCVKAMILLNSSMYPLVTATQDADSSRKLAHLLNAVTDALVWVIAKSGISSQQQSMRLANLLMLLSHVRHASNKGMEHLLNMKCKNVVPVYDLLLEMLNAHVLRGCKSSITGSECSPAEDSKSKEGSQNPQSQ

| SMILES | RBA ERα (relative binding affinity) [1] | RBA ERβ (relative binding affinity) [2] | induction of PGR expression [3] | other results |
| --- | --- | --- | --- | --- |
| CC(C)=CCc1c(O)cc(O)c2c1O[C@H](c1ccc(O)cc1)CC2=O [8-PN, 8-prenylnaringenin, reference compound] | 0.686 ± 0.18 | 2.42 ± 0.62 | statistically significant induction | fold greater affinity for ERα compared to XN, DXN, and TXN [1]: > 100 fold; fold greater affinity for ERβ compared to XN, DXN, and TXN [2]: > 100 fold; MCF-7 cell viability/proliferation at low concentrations (MCF-7 cells): induced cell proliferation |
| COc1cc(O)c(CC=C(C)C)c2c1C(=O)CC(c1ccc(O)cc1)O2 (centres unmarked) [IX, Isoxanthohumol, reference compound] | 0.0020 ± 0.0002 | 0.019 ± 0.004 | – | – |
| C[C@]12CC[C@@H]3c4ccc(O)cc4CC[C@H]3[C@@H]1CC[C@@H]2O [estradiol, 17β-estradiol, reference compound] | – | – | statistically significant induction | – |
| CC[C@H]1/C=C/C=C/C[C@@H](C)[C@H](O)[C@@](C)(O)C(=O)[C@@H](C)[C@H](O)[C@@H](C)C(=O)[C@@H](C)[C@H](O)[C@@H](C)/C=C/C(=O)O[C@@H]2[C@H](C)[C@H](CC1)O[C@]1(CC[C@H](C)[C@H](C[C@@H](C)O)O1)[C@H]2C [oligomycin, reference compound] | – | – | – | Increase in ECAR (C2C12 cells): 1.6 fold |
| CN(CCOc1ccc(CC2SC(=O)NC2=O)cc1)c1ccccn1 (centres unmarked) [rosiglitazone] | – | – | – | Increased risk of heart attack [4]: 43% |
